Values quoted from earlier work, collected in patent US9175008B1, “Prodrugs of anti-platelet agents” (CELLIX BIO PRIVATE LIMITED, priority 2014, dated 2015).

Tested on: recurrent atherothrombotic events
Conditions: recurrent atherothrombotic events across a wide range of high-risk patients

CC(=O)Oc1ccccc1C(=O)O [aspirin]
relative risk reduction: approximately 25%
